Consider 19 molecules from US12409171B2, “Pharmaceutically active pyrazolo-pyridone modulators of DCN1/2-mediated cullin neddylation” (UNIVERSITY OF KENTUCKY RESEARCH FOUNDATION, priority 2019, dated 2025).

Bounds are passed on as bounds.

This assay deals with DCN1 (Homo sapiens (Human), UniProt Q96GG9). The experiment in a line: TR-FRET binding assay (biotin-DCN1 / Ac-UBE2M12-AlexaFluor488). The following applies: mean ± SD (n); read-out: DCN1_TRFRET Mean EC50. On the procedure: • IC50 values were generated using our TR-FRET binding assay and are represented as the mean of three replicates with errors reported as the standard deviation.
Sequence of DCN1 (Q96GG9 whole entry): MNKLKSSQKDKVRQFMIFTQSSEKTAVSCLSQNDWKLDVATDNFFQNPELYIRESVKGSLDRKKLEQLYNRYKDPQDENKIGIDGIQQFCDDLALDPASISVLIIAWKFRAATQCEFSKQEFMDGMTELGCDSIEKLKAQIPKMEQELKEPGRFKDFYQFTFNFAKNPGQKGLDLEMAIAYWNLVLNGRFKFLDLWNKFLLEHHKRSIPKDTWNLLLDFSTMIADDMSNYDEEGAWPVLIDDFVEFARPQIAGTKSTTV
The assay cocktail was then incubated for 1 h at room temperature and distributed using a WellMate instrument (Matrix). Compounds to be screened were added to assay plates from DMSO stock solutions by pin transfer using 50SS pins (V&P Scientific). […] All compounds were tested in triplicate or more.
With `CCC(C)n1nc(C)c2c1N(C(C)=O)C(=O)[C@@H](NC(=O)c1cccc(C)c1)[C@H]2c1ccc(F)cc1` (stereo partly drawn) [RG-0005665, N-[(4S,5S)-7-acetyl-1-(butan-2-yl)-4-(4-fluorophenyl)-3-methyl-6-oxo-1H,4H,5H,6H,7H-pyrazolo[3,4-b]pyridin-5-yl]-3-methylbenzamide], the 50% effective concentration (EC50) came out at 5.31 ± 0.85 µM.

Turning to `CC/C=C/C(=O)N[C@@H]1C(=O)N(CC)c2c(c(C)nn2-c2ccccc2)[C@@H]1c1ccc(F)cc1` [RG-0014157, (2E)-N-[(4S,5S)-7-ethyl-4-(4-fluorophenyl)-3-methyl-6-oxo-1-phenyl-1H,4H,5H,6H,7H-pyrazolo[3,4-b]pyridin-5-yl]pent-2-enamide], the concentration for a half-maximal effect (EC50) is > 30.7 µM.

Turning to `CCCn1nc(C)c2c1N(CC)C(=O)[C@@H](NC(=O)c1cccc(C)c1)[C@H]2c1ccc(F)cc1` [RG-0008665, N-[(4S,5S)-7-ethyl-4-(4-fluorophenyl)-3-methyl-6-oxo-1-propyl-1H,4H,5H,6H,7H-pyrazolo[3,4-b]pyridin-5-yl]-3-methylbenzamide], the EC50 is 0.244 ± 0.0208 µM.

For the molecule `CCCN1C(=O)[C@@H](NC(=O)c2cccc(C)c2)[C@@H](c2ccc(F)cc2)c2c(C)nn(CCC)c21` [RG-0008666, N-[(4S,5S)-4-(4-fluorophenyl)-3-methyl-6-oxo-1,7-dipropyl-1H,4H,5H,6H,7H-pyrazolo[3,4-b]pyridin-5-yl]-3-methylbenzamide], the EC50 came to 1.17 ± 0.0993 µM.

As for `CCN1C(=O)[C@@H](NS(=O)(=O)c2cccc(C(F)(F)F)c2)[C@@H](c2ccc(F)cc2)c2c(C)nn(-c3ccccc3)c21` [RG-0013808, N-[(4S,5S)-7-ethyl-4-(4-fluorophenyl)-3-methyl-6-oxo-1-phenyl-1H,4H,5H,6H,7H-pyrazolo[3,4-b]pyridin-5-yl]-3-(trifluoromethyl)benzene-1-sulfonamide], the EC50 is > 36.5 µM.

Turning to `CCN1C(=O)[C@@H](NC(=O)c2cccc(S(C)(=O)=O)c2)[C@@H](c2ccc(F)cc2)c2c(C)nn(-c3ccccc3)c21` [RG-0013977, N-[(4S,5S)-7-ethyl-4-(4-fluorophenyl)-3-methyl-6-oxo-1-phenyl-1H,4H,5H,6H,7H-pyrazolo[3,4-b]pyridin-5-yl]-3-methanesulfonylbenzamide], the EC50 was > 36.5 µM.

`Cc1nn(-c2ccccc2)c2c1[C@H](c1ccc(F)cc1)[C@H](NC(=O)c1cccc(C(F)(F)F)c1)C(=O)N2CCO[Si](C)(C)C(C)(C)C` [RG-0014164, N-[(4S,5S)-7-{2-[(tert-butyldimethylsilyl)oxy]ethyl}-4-(4-fluorophenyl)-3-methyl-6-oxo-1-phenyl-1H,4H,5H,6H,7H-pyrazolo[3,4-b]pyridin-5-yl]-3-(trifluoromethyl)benzamide]: the half-maximal effective concentration (EC50) was > 36.5 µM.

Consider `COC(=O)CN1C(=O)[C@@H](NC(=O)c2cccc(C(F)(F)F)c2)[C@@H](c2ccc(F)cc2)c2c(C)nn(-c3ccccc3)c21` [RG-0013841, methyl 2-[(4S,5S)-4-(4-fluorophenyl)-3-methyl-6-oxo-1-phenyl-5-[3-(trifluoromethyl)benzamido]-1H,4H,5H,6H,7H-pyrazolo[3,4-b]pyridin-7-yl]acetate], for which the EC50 worked out at 5.54 ± 1.08 µM.

On to `CCCn1nc(C)c2c1N(C)C(=O)[C@@H](NC(=O)c1cccc(C)c1)[C@H]2c1ccc(F)cc1` [RG-0007411, N-[(4S,5S)-4-(4-fluorophenyl)-3,7-dimethyl-6-oxo-1-propyl-1H,4H,5H,6H,7H-pyrazolo[3,4-b]pyridin-5-yl]-3-methylbenzamide], for which the concentration giving a half-maximal response (EC50) was found to be 0.585 ± 0.106 µM.

For the molecule `C#CCOCc1nn(-c2ccccc2)c2c1[C@H](c1ccc(F)cc1)[C@H](NC(=O)c1cccc(C)c1)C(=O)N2CC` [RG-0013055, N-[(4S,5S)-7-ethyl-4-(4-fluorophenyl)-6-oxo-1-phenyl-3-[(prop-2-yn-1-yloxy)methyl]-1H,4H,5H,6H,7H-pyrazolo[3,4-b]pyridin-5-yl]-3-methylbenzamide], the EC50 amounted to 0.168 ± 0.0081 µM.

With `CCN1C(=O)[C@@H](NC(=O)c2cccc(C(F)(F)F)c2)[C@@H](c2ccc(F)cc2)c2c(CNC(=O)CC(C)C)nn(-c3ccccc3)c21` [RG-0014052, N-[(4S,5S)-7-ethyl-4-(4-fluorophenyl)-3-[(3-methylbutanamido)methyl]-6-oxo-1-phenyl-1H,4H,5H,6H,7H-pyrazolo[3,4-b]pyridin-5-yl]-3-(trifluoromethyl)benzamide], the concentration for a half-maximal effect (EC50) worked out at 0.114 ± 0.00867 µM.

As to `CCN1C(=O)[C@@H](NC(=O)c2cccc(Oc3ccccc3)c2)[C@@H](c2ccc(F)cc2)c2c(C)nn(-c3ccccc3)c21` [RG-0013976, N-[(4S,5S)-7-ethyl-4-(4-fluorophenyl)-3-methyl-6-oxo-1-phenyl-1H,4H,5H,6H,7H-pyrazolo[3,4-b]pyridin-5-yl]-3-phenoxybenzamide], the concentration for a half-maximal effect (EC50) is 5.93 ± 0.606 µM.

As to `CCCN1C(=O)[C@@H](NC(=O)c2cccc(C)c2)[C@@H](c2ccc(F)cc2)c2c(C)nn(-c3ccccc3)c21` [RG-0007415, N-[(4S,5S)-4-(4-fluorophenyl)-3-methyl-6-oxo-1-phenyl-7-propyl-1H,4H,5H,6H,7H-pyrazolo[3,4-b]pyridin-5-yl]-3-methylbenzamide], the EC50 was 1.04 ± 0.204 µM.

On to `CCN1C(=O)[C@@H](N)[C@@H](c2ccc(F)cc2)c2c(C)nn(-c3ccccc3)c21` [RG-0013837, (4S,5S)-5-amino-7-ethyl-4-(4-fluorophenyl)-3-methyl-1-phenyl-1H,4H,5H,6H,7H-pyrazolo[3,4-b]pyridin-6-one], for which the half-maximal effective concentration (EC50) was > 36.5 µM.

In the case of `CCN1C(=O)[C@@H](NC(=O)c2cc(C)cc(F)c2)[C@@H](c2ccc(F)cc2)c2c(C)nn(-c3ccccc3)c21` [RG-0013053, N-[(4S,5S)-7-ethyl-4-(4-fluorophenyl)-3-methyl-6-oxo-1-phenyl-1H,4H,5H,6H,7H-pyrazolo[3,4-b]pyridin-5-yl]-3-fluoro-5-methylbenzamide], the 50% effective concentration (EC50) is 2.33 ± 0.105 µM.

For `CCN1C(=O)[C@@H](NC(=O)c2cccc(C)c2)[C@@H](c2ccc(F)cc2)c2c(C)nn(C3CC3)c21` [RG-0008872, N-[(4S,5S)-1-cyclopropyl-7-ethyl-4-(4-fluorophenyl)-3-methyl-6-oxo-1H,4H,5H,6H,7H-pyrazolo[3,4-b]pyridin-5-yl]-3-methylbenzamide], the EC50 is 0.19 ± 0.0356 µM.

On to `CCN1C(=O)[C@@H](NC(=O)c2cccc(C(F)(F)F)c2)[C@@H](c2cncs2)c2c(C)nn(-c3ccccc3)c21` [RG-0014005, N-[(4S,5S)-7-ethyl-3-methyl-6-oxo-1-phenyl-4-(1,3-thiazol-5-yl)-1H,4H,5H,6H,7H-pyrazolo[3,4-b]pyridin-5-yl]-3-(trifluoromethyl)benzamide], for which the 50% effective concentration (EC50) worked out at 1.92 ± 0.0752 µM.

As for `Cc1cccc(C(=O)N[C@@H]2C(=O)N(C(C)C)c3c(c(C)nn3-c3ccccc3)[C@@H]2c2ccc(F)cc2)c1` [RG-0008670, N-[(4S,5S)-4-(4-fluorophenyl)-3-methyl-6-oxo-1-phenyl-7-(propan-2-yl)-1H,4H,5H,6H,7H-pyrazolo[3,4-b]pyridin-5-yl]-3-methylbenzamide], the EC50 is 4.14 ± 0.765 µM.

In the case of `CCN1C(=O)[C@@H](NC(=O)c2cccc(C)c2)[C@@H](c2ccc(F)cc2)c2c(C)nn(CC)c21` [RG-0008869, N-[(4S,5S)-1,7-diethyl-4-(4-fluorophenyl)-3-methyl-6-oxo-1H,4H,5H,6H,7H-pyrazolo[3,4-b]pyridin-5-yl]-3-methylbenzamide], the half-maximal effective concentration (EC50) was 0.384 ± 0.0306 µM.
